Measured values: patent US20260262643A1, “HERBICIDAL BENZOXAZINES” (FMC CORPORATION, priority 2022, published 2026)

Key:
sedge, umbrella = assay: Test B flooded paddy test; format: in vivo, Cyperus difformis; conditions: 250 g ai/ha, Flood, 13 days, 0 to 100 scale (0 no effect, 100 complete control)
In short: (§1)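 Visual scores from 0 (no effect) to 100 (complete kill) were assigned 13 days after treatment by comparison with controls. Seedlings had been treated at two leaves by adding compound to floodwater standing 3 cm deep, kept at that level in the greenhouse.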

horseweed = assay: Test A postemergence; format: in vivo, Erigeron canadensis
In short: (§2)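 Seeds in loam–sand blend received a directed preemergence soil spray of compound in non-phytotoxic solvent with surfactant; postemergence plants (2–10 cm, one- to two-leaf stage) were sprayed with the same formulation. After 10 days in greenhouse, injury was rated visually versus untreated controls, 0 (no effect) to 100 (complete control).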

galium = assay: Test A postemergence; format: in vivo, Galium aparine
In short: as §2

corn [1] = assay: Test A preemergence; format: in vivo, Zea mays
In short: as §2

rice = assay: Test B flooded paddy test; format: in vivo, Oryza sativa; conditions: 250 g ai/ha, Flood, 13 days, 0 to 100 scale (0 no effect, 100 complete control)
In short: as §1

kochia [2] = assay: Test A preemergence; format: in vivo, Bassia scoparia
In short: as §2

blackgrass [3] = assay: Test A preemergence; format: in vivo, Alopecurus myosuroides
In short: as §2

soybean [4] = assay: Test A postemergence; format: in vivo, Glycine max
In short: as §2

ryegrass, Italian [5] = assay: Test A preemergence; format: in vivo, Lolium multiflorum
In short: as §2

ryegrass, Italian [6] = assay: Test A postemergence; format: in vivo, Lolium multiflorum
In short: as §2

goosegrass [7] = assay: Test A preemergence; format: in vivo, Eleusine indica
In short: as §2

wheat [8] = assay: Test A preemergence; format: in vivo, Triticum aestivum
In short: as §2

corn [9] = assay: Test A postemergence; format: in vivo, Zea mays
In short: as §2

soybean [10] = assay: Test A preemergence; format: in vivo, Glycine max
In short: as §2

barnyardgrass = assay: Test B flooded paddy test; format: in vivo, Echinochloa crus-galli; conditions: 250 g ai/ha, Flood, 13 days, 0 to 100 scale (0 no effect, 100 complete control)
In short: as §1

wheat [11] = assay: Test A postemergence; format: in vivo, Triticum aestivum
In short: as §2

ragweed [12] = assay: Test A postemergence; format: in vivo, Ambrosia artemisiifolia
In short: as §2

oat, wild [13] = assay: Test A postemergence; format: in vivo, Avena fatua
In short: as §2

pigweed, palmer [14] = assay: Test A preemergence; format: in vivo, Amaranthus palmeri
In short: as §2

ragweed [15] = assay: Test A preemergence; format: in vivo, Ambrosia artemisiifolia
In short: as §2

pigweed, palmer [16] = assay: Test A postemergence; format: in vivo, Amaranthus palmeri
In short: as §2

goosegrass [17] = assay: Test A postemergence; format: in vivo, Eleusine indica
In short: as §2

oat, wild [18] = assay: Test A preemergence; format: in vivo, Avena fatua
In short: as §2

foxtail, giant [19] = assay: Test A preemergence; format: in vivo, Setaria faberi
In short: as §2

ducksalad = assay: Test B flooded paddy test; format: in vivo, Heteranthera limosa; conditions: 250 g ai/ha, Flood, 13 days, 0 to 100 scale (0 no effect, 100 complete control)
In short: as §1

kochia [20] = assay: Test A postemergence; format: in vivo, Bassia scoparia
In short: as §2

blackgrass [21] = assay: Test A postemergence; format: in vivo, Alopecurus myosuroides
In short: as §2

foxtail, giant [22] = assay: Test A postemergence; format: in vivo, Setaria faberi
In short: as §2

[23] = 125 g ai/ha, postemergence, 10 days, 0 to 100 scale, 0 no effect, 100 complete control
[24] = 500 g ai/ha, postemergence, 10 days, visual injury, 0 to 100 scale (0 no effect, 100 complete control)
[25] = 125 g ai/ha, visual injury after 10 days, 0 to 100 scale, 0 is no effect, 100 is complete control
[26] = 500 g ai/ha, visual injury after 10 days, 0 to 100 scale, 0 is no effect, 100 is complete control
[27] = 125 g ai/ha, postemergence, 10 days, visual injury, 0 to 100 scale (0 no effect, 100 complete control)
[28] = 500 g ai/ha, 0 to 100 scale (0 no effect, 100 complete control), 10 days
[29] = 500 g ai/ha, Postemergence, 0 to 100 scale

## Cc1cccc2c1O[C@@H](C)CN2C(=O)c1cccc(-n2cnn(C(C)C)c2=O)c1 [Compound 118]
sedge, umbrella
  Plant response rating, Sedge, Umbrella: 0
horseweed; [23]
  Horseweed plant response rating: 0
horseweed; [24]
  Plant response rating, Horseweed: 0
galium; [23]
  Galium plant response rating: 10
galium; [24]
  Plant response rating, Galium: 30
Corn [1]; [25]
  Plant response rating, Corn: 0
Corn [1]; [26]
  Plant response rating, Corn: 30
rice
  Plant response rating, Rice: 0
Kochia [2]; [25]
  Plant response rating, Kochia: 0
Kochia [2]; [26]
  Plant response rating, Kochia: 70
Blackgrass [3]; [25]
  Plant response rating, Blackgrass: 20
Blackgrass [3]; [26]
  Plant response rating, Blackgrass: 70
Soybean [4]; [23]
  Soybean plant response rating: 40
Soybean [4]; [24]
  Plant response rating, Soybean: 80
ryegrass, Italian [5]; [25]
  Plant response rating, Ryegrass, Italian: 70
ryegrass, Italian [5]; [26]
  Plant response rating, Ryegrass, Italian: 100
ryegrass, Italian [6]; [23]
  Ryegrass, Italian plant response rating: 10
ryegrass, Italian [6]; [24]
  Plant response rating, Ryegrass, Italian: 60
Goosegrass [7]; [25]
  Plant response rating, Goosegrass: 90
Goosegrass [7]; [26]
  Plant response rating, Goosegrass: 100
Wheat [8]; [25]
  Plant response rating, Wheat: 0
Wheat [8]; [26]
  Plant response rating, Wheat: 30
Corn [9]; [23]
  Corn plant response rating: 0
Corn [9]; [24]
  Plant response rating, Corn: 70
Soybean [10]; [25]
  Plant response rating, Soybean: 40
Soybean [10]; [26]
  Plant response rating, Soybean: 60
barnyardgrass
  Plant response rating, Barnyardgrass: 0
Wheat [11]; [23]
  Wheat plant response rating: 10
Wheat [11]; [24]
  Plant response rating, Wheat: 30
Ragweed [12]; [23]
  Ragweed plant response rating: 0
Ragweed [12]; [24]
  Plant response rating, Ragweed: 30
oat, wild [13]; [23]
  Oat, Wild plant response rating: 10
oat, wild [13]; [24]
  Plant response rating, Oat, Wild: 90
pigweed, palmer [14]; [25]
  Plant response rating, Pigweed, Palmer: 40
pigweed, palmer [14]; [26]
  Plant response rating, Pigweed, Palmer: 100
Ragweed [15]; [25]
  Plant response rating, Ragweed: 0
Ragweed [15]; [26]
  Plant response rating, Ragweed: 30
pigweed, palmer [16]; [23]
  Pigweed, Palmer plant response rating: 0
pigweed, palmer [16]; [24]
  Plant response rating, Pigweed, Palmer: 20
Goosegrass [17]; [23]
  Goosegrass plant response rating: 20
Goosegrass [17]; [24]
  Plant response rating, Goosegrass: 40
oat, wild [18]; [25]
  Plant response rating, Oat, Wild: 30
oat, wild [18]; [26]
  Plant response rating, Oat, Wild: 90
foxtail, giant [19]; [25]
  Plant response rating, Foxtail, Giant: 20
foxtail, giant [19]; [26]
  Plant response rating, Foxtail, Giant: 100
ducksalad
  Plant response rating, Ducksalad: 0
Kochia [20]; [23]
  Kochia plant response rating: 30
Kochia [20]; [24]
  Plant response rating, Kochia: 80
Blackgrass [21]; [23]
  Blackgrass plant response rating: 0
Blackgrass [21]; [24]
  Plant response rating, Blackgrass: 70
foxtail, giant [22]; [23]
  Foxtail, Giant plant response rating: 10
foxtail, giant [22]; [24]
  Plant response rating, Foxtail, Giant: 50

## CCc1ncn(-c2cccc(C(=O)N3C[C@H](C)Oc4c(C)cccc43)c2)n1 [Compound 71]
sedge, umbrella
  Plant response rating, Sedge, Umbrella: 95
horseweed; [27]
  Plant response rating, Horseweed: 30
horseweed; [24]
  Plant response rating, Horseweed: 80
galium; [27]
  Plant response rating, Galium: 100
galium; [24]
  Plant response rating, Galium: 100
Corn [1]; [25]
  Plant response rating, Corn: 40
Corn [1]; [28]
  Plant response rating, Corn: 60
rice
  Plant response rating, Rice: 0
Kochia [2]; [25]
  Plant response rating, Kochia: 80
Kochia [2]; [28]
  Plant response rating, Kochia: 100
Blackgrass [3]; [25]
  Plant response rating, Blackgrass: 80
Blackgrass [3]; [28]
  Plant response rating, Blackgrass: 90
Soybean [4]; [24]
  Plant response rating, Soybean: 100
ryegrass, Italian [5]; [25]
  Plant response rating, Ryegrass, Italian: 100
ryegrass, Italian [5]; [28]
  Plant response rating, Ryegrass, Italian: 100
ryegrass, Italian [6]; [24]
  Plant response rating, Ryegrass, Italian: 100
Goosegrass [7]; [25]
  Plant response rating, Goosegrass: 100
Goosegrass [7]; [28]
  Plant response rating, Goosegrass: 100
Wheat [8]; [25]
  Plant response rating, Wheat: 30
Wheat [8]; [28]
  Plant response rating, Wheat: 90
Corn [9]; [27]
  Plant response rating, Corn: 60
Corn [9]; [24]
  Plant response rating, Corn: 90
Soybean [10]; [25]
  Plant response rating, Soybean: 50
Soybean [10]; [28]
  Plant response rating, Soybean: 90
barnyardgrass
  Plant response rating, Barnyardgrass: 0
Wheat [11]; [24]
  Plant response rating, Wheat: 80
Ragweed [12]; [24]
  Plant response rating, Ragweed: 80
oat, wild [13]; [24]
  Plant response rating, Oat, Wild: 80
pigweed, palmer [14]; [25]
  Plant response rating, Pigweed, Palmer: 100
pigweed, palmer [14]; [28]
  Plant response rating, Pigweed, Palmer: 100
Ragweed [15]; [25]
  Plant response rating, Ragweed: 0
Ragweed [15]; [28]
  Plant response rating, Ragweed: 90
pigweed, palmer [16]; [24]
  Plant response rating, Pigweed, Palmer: 70
Goosegrass [17]; [27]
  Plant response rating, Goosegrass: 10
Goosegrass [17]; [24]
  Plant response rating, Goosegrass: 50
oat, wild [18]; [25]
  Plant response rating, Oat, Wild: 90
oat, wild [18]; [28]
  Plant response rating, Oat, Wild: 90
foxtail, giant [19]; [25]
  Plant response rating, Foxtail, Giant: 100
foxtail, giant [19]; [28]
  Plant response rating, Foxtail, Giant: 100
ducksalad
  Plant response rating, Ducksalad: 65
Kochia [20]; [27]
  Plant response rating, Kochia: 60
Kochia [20]; [24]
  Plant response rating, Kochia: 90
Blackgrass [21]; [27]
  Plant response rating, Blackgrass: 80
Blackgrass [21]; [29]
  Plant response rating, Blackgrass: 90
foxtail, giant [22]; [27]
  Plant response rating, Foxtail, Giant: 90
foxtail, giant [22]; [24]
  Plant response rating, Foxtail, Giant: 90

## Cc1ncn(-c2cccc(C(=O)N3C[C@H](C)Oc4c(C)cccc43)c2)n1 [Compound 51]
sedge, umbrella
  Plant response rating, Sedge, Umbrella: 80
horseweed; [27]
  Plant response rating, Horseweed: 0
horseweed; [29]
  Plant response rating, Horseweed: 20
galium; [27]
  Plant response rating, Galium: 80
galium; [29]
  Plant response rating, Galium: 100
Corn [1]; [25]
  Plant response rating, Corn: 20
Corn [1]; [28]
  Plant response rating, Corn: 50
rice
  Plant response rating, Rice: 15
Kochia [2]; [25]
  Plant response rating, Kochia: 70
Kochia [2]; [28]
  Plant response rating, Kochia: 90
Blackgrass [3]; [25]
  Plant response rating, Blackgrass: 30
Blackgrass [3]; [28]
  Plant response rating, Blackgrass: 60
Soybean [4]; [27]
  Plant response rating, Soybean: 100
Soybean [4]; [29]
  Plant response rating, Soybean: 100
ryegrass, Italian [5]; [25]
  Plant response rating, Ryegrass, Italian: 90
ryegrass, Italian [5]; [28]
  Plant response rating, Ryegrass, Italian: 100
ryegrass, Italian [6]; [27]
  Plant response rating, Ryegrass, Italian: 70
ryegrass, Italian [6]; [29]
  Plant response rating, Ryegrass, Italian: 90
Goosegrass [7]; [25]
  Plant response rating, Goosegrass: 90
Goosegrass [7]; [28]
  Plant response rating, Goosegrass: 100
Wheat [8]; [25]
  Plant response rating, Wheat: 20
Wheat [8]; [28]
  Plant response rating, Wheat: 60
Corn [9]; [27]
  Plant response rating, Corn: 30
Corn [9]; [29]
  Plant response rating, Corn: 50
Soybean [10]; [25]
  Plant response rating, Soybean: 90
Soybean [10]; [28]
  Plant response rating, Soybean: 100
barnyardgrass
  Plant response rating, Barnyardgrass: 25
Wheat [11]; [27]
  Plant response rating, Wheat: 30
Wheat [11]; [29]
  Plant response rating, Wheat: 80
Ragweed [12]; [27]
  Plant response rating, Ragweed: 0
Ragweed [12]; [29]
  Plant response rating, Ragweed: 0
oat, wild [13]; [27]
  Plant response rating, Oat, Wild: 30
oat, wild [13]; [29]
  Plant response rating, Oat, Wild: 70
pigweed, palmer [14]; [25]
  Plant response rating, Pigweed, Palmer: 0
pigweed, palmer [14]; [28]
  Plant response rating, Pigweed, Palmer: 60
Ragweed [15]; [25]
  Plant response rating, Ragweed: 0
Ragweed [15]; [28]
  Plant response rating, Ragweed: 0
pigweed, palmer [16]; [27]
  Plant response rating, Pigweed, Palmer: 20
pigweed, palmer [16]; [29]
  Plant response rating, Pigweed, Palmer: 50
Goosegrass [17]; [27]
  Plant response rating, Goosegrass: 40
Goosegrass [17]; [29]
  Plant response rating, Goosegrass: 80
oat, wild [18]; [25]
  Plant response rating, Oat, Wild: 30
oat, wild [18]; [28]
  Plant response rating, Oat, Wild: 90
foxtail, giant [19]; [25]
  Plant response rating, Foxtail, Giant: 100
foxtail, giant [19]; [28]
  Plant response rating, Foxtail, Giant: 100
ducksalad
  Plant response rating, Ducksalad: 65
Kochia [20]; [27]
  Plant response rating, Kochia: 60
Kochia [20]; [29]
  Plant response rating, Kochia: 70
Blackgrass [21]; [27]
  Plant response rating, Blackgrass: 40
Blackgrass [21]; [29]
  Plant response rating, Blackgrass: 50
foxtail, giant [22]; [27]
  Plant response rating, Foxtail, Giant: 90
foxtail, giant [22]; [29]
  Plant response rating, Foxtail, Giant: 90
